Key:
C4-2 cells [1] = test: cell surface binding of PSMA antibody-chelator conjugate by flow cytometry after co-culture with AR antagonists; format: cell-based; settings: 10 μM darolutamide; 7, 14 and 21 days co-culturing; saturating conjugate concentrations; vs DMSO reference
Experimental: (§1) The effects of PSMA-TTC compound A′ and compound B (darolutamide, ODM-201) or compound C (enzalutamide) in PSMA overexpressing prostate cancer cell lines LNCaP and C4-2 were investigated in vitro. LNCaP (hormone sensitive) and C4-2 (hormone insensitive) cells were co-cultured in presence of either enzalutamide or darolutamide/ODM-201 and the effect on cell binding of PSMA-conjugate and cytotoxicity of PSMA-TTC was evaluated.
(§2) C4-2 and LNCaP cells were seeded in similar cell medium (RPMI/10% FBS/1% HEPES/1% MEM NEAA/1% NaPyruvate/1% L-glutamine). One day after seeding, cells were exposed to either enzalutamide (1 μM), darolutamide (=ODM-201) (10 μM) or DMSO (0.1% (v/v); reference). Seven, 14 and 21 days after co-culturing, the cells were analyzed for cell surface binding of PSMA antibody-chelator conjugate by flow cytometry. The binding of PSMA conjugate at saturating concentrations increased in both cell lines after treatment with the AR antagonists: maximal binding of PMSA conjugate was increased by 1 μM enzalutamide by 1.9 to 2.8 fold and by 10 μM darolutamide by 1.7-3.6 fold. Similar results were obtained in LNCaP cells. In addition, cells pre-treated in the presence or absence of AR antagonists at the respective concentrations entered cytotoxicity experiments using cell titer Glo (Promega) as readout for cell viability.

C4-2 cells [2] = test: in vitro cytotoxicity of PSMA-TTC with AR antagonist pre-treatment, cell titer Glo cell viability; format: cell-based; settings: then PSMA-TTC dose titration (50 MBq/mg), 5 days incubation
Experimental: as §1
as §2, with “The binding of PSMA conjugate at saturating concentrations increased in both cell lines after treatment with the AR antagonists: maximal binding of PMSA conjugate was increased by 1 μM enzalutamide by 1.9 to 2.8 fold and by 10 μM darolutamide by 1.7-3.6 fold. Similar results were obtained in LNCaP cells.” left out
Respective cells pretreated for 0 or 7 days with AR antagonists were seeded on Day −1 at an appropriate cell density (e.g. 1000 cells/well). […] Cell viability was measured after incubation for 5 days in the presence of dose titrations of PSMA-TTC or corresponding controls. […]

[3] = test system: KUCaP-1 human patient derived prostate cancer model; test: anti-tumor activity in KUCaP-1 patient derived prostate cancer xenograft model; format: in vivo, mice; settings: KUCaP-1, day 32
[4] = test system: ST1273 human patient derived prostate cancer model; test: anti-tumor activity in ST1273 patient derived prostate cancer xenograft model; format: in vivo, mice
[5] = ST1273, 26 days after dosing/start of treatment

| SMILES | increase of maximal binding of PSMA conjugate (C4-2 cells [1]) | sensitivity to growth inhibition by PSMA-TTC (C4-2 cells [2]; darolutamide 10 μM for 7 days) | PD, progressive disease (mice/group) [3] | Response rate (RR) ([3]; PSMA-TTC 150 kBq/kg i.v., darolutamide 200 mg/kg QD p.o.) | sensitivity to growth inhibition by PSMA-TTC (C4-2 cells [2]; enzalutamide 1 μM for 7 days) | complete response, share of the mice [4, 5] [%] | partial response, share of the mice [4, 5] [%] | CR, complete response (mice/group) ([4]; ST1273, day 26) | PR, partial response (mice/group) ([4]; ST1273, day 26) | Response rate (RR) ([4]; ST1273, day 26, PSMA-TTC 250 kBq/kg single i.v., enzalutamide 30 mg/kg QD×28 p.o.) |
| --- | --- | --- | --- | --- | --- | --- | --- | --- | --- | --- |
| CC(O)c1cc(C(=O)N[C@@H](C)Cn2ccc(-c3ccc(C#N)c(Cl)c3)n2)n[nH]1 (stereo partly drawn) [darolutamide, N-((S)-1-(3-(3-Chloro-4-cyanophenyl)-1H-pyrazol-1-yl-)-propan-2-yl)-5-(1-hydroxyethyl)-1H-pyrazole-3-carboxamide] | 1.7-3.6 fold | increased sensitivity to growth inhibition by PSMA-TTC | (PD: 10/10) | RR: 0% | – | – | – | – | – | – |
| CNC(=O)c1ccc(N2C(=S)N(c3ccc(C#N)c(C(F)(F)F)c3)C(=O)C2(C)C)cc1F [enzalutamide] | – | – | – | – | increased sensitivity to growth inhibition by PSMA-TTC | 33 | 67 | (CR: 3/9, | PR: 6/9) | RR: 100% |
